Laboratory results as given in patent publication US11560400B2, “Salts of diphosphate phosphoramidate of nucleosides as anticancer compounds” (NuCana plc, priority 2017, dated 2023).
pEC50: −log10 of the molar value. Where a name gives a salt, the structure may show the parent alone. Read-outs that look alike come from different tables or passages of the source.

Experiments:
HT29 = assay: CellTiterGlo cell viability assay, HT29; type: cell-based; settings: HT29, 72 h; for pEC50: read-out: Ab EC50; for inhibition at 198 µM: read-out: Top Inhibit
Experimental: (§1) A subset of compounds of the invention were assayed for their cytotoxic activity in an array of different solid tumours and haematological malignancies using the following assay.
(§2) In vitro viability assay were performed to assess the effects of compounds on cell viability in selected cell lines over 72 h using the CellTiterGlo (CTG, Promega-G7573) assay. The tests were performed in duplicates with treatment of compounds at 9 points, 3.16 folds titration in 96 well plates over ˜72 h. The compound starting concentrations were 198 μM. Cell viability assay using CellTiterGlo in 96-well plate were performed. Compound treatment 72 h, standard growth conditions, duplicates. Compounds were dissolved to 40 mM with thawed […]. Compounds were serially diluted at 3.16 fold in thawed DMSO, and warmed to 37° C. before being dissolved in media (2 μL+200 μL). After compounds were dissolved in media, media containing compounds were warmed to 37° C. in incubator and then compounds in media were added to cell plates (50 μL+50 μL) in duplicates. The compounds' final concentrations were from 198 μM to 19.8 nM. All compound solubilities were checked and recorded again, then the plates were transferred to CO2 tissue culture incubator immediately and incubated for 3 days. DMSO final concentration is 0.5%. The parent nucleoside in each case was tested as a comparator, as was an exemplary ProTide. The drugs of the ProTide class that were tested were as follows:
(§3) The following cell lines were tested and are referred to in the Table 1 below:
(§4) In Tables 2, 3 and 4, ‘Ab EC50’ refers to the absolute EC50 and ‘Top inhibit’ refers to the percentage inhibition achieved at the highest concentration tested.

HepG2 = assay: CellTiterGlo cell viability assay, HepG2; type: cell-based; settings: HepG2, 72 h; for inhibition at 198 µM: read-out: Top Inhibit; for pEC50: read-out: Ab EC50
Experimental: as §1, §2, §3, §4

OVCAR 3 = assay: CellTiterGlo cell viability assay, OVCAR 3; type: cell-based; settings: for inhibition at 198 µM: OVCAR-3, 72 h, read-out: Top Inhibit; for pEC50: read-out: Ab EC50
Experimental: as §1, §2, §3, §4

MCF-7 = assay: CellTiterGlo cell viability assay, MCF-7; type: cell-based; settings: MCF-7, 72 h, percentage inhibition at the highest concentration tested; for inhibition at 198 µM: Homo sapiens, MCF7, 72 h, read-out: Top Inhibit
Experimental: as §1, §2, §3, §4

CCRF-CEM = assay: CellTiterGlo cell viability assay, CCRF-CEM; type: cell-based; settings: 72 h; for pEC50: read-out: Ab EC50; for inhibition at 198 µM: read-out: Top Inh
Experimental: as §1, §2, §3, §4

MOLT-4 = assay: CellTiterGlo cell viability assay, MOLT-4; type: cell-based; settings: MOLT-4, 72 h; for inhibition at 198 µM: read-out: Top Inh; for pEC50: read-out: Ab EC50
Experimental: as §1, §2, §3, §4

K562 = assay: CellTiterGlo cell viability assay, K562; type: cell-based; settings: for inhibition at 198 µM: read-out: Top Inh; for pEC50: read-out: Ab EC50
Experimental: as §1, §2, §3, §4

HL-60 = assay: CellTiterGlo cell viability assay, HL-60; type: cell-based; settings: HL-60, 72 h; for pEC50: read-out: Ab EC50; for inhibition at 198 µM: read-out: Top Inh
Experimental: as §1, §2, §3, §4

RL = assay: CellTiterGlo cell viability assay, RL; type: cell-based; settings: 72 h; for inhibition at 198 µM / pEC50: Homo sapiens; for inhibition at 198 µM: read-out: Top Inh; for pEC50: Table 4 classes, read-out: Ab EC50
Experimental: as §1, §2, §3, §4

RPMI-8226 = assay: CellTiterGlo cell viability assay, RPMI-8226; type: cell-based, Human; settings: RPMI-8226, 72 h; for pEC50: read-out: Ab EC50; for inhibition at 198 µM: read-out: Top Inh
Experimental: as §1, §2, §3, §4

KG-1 = assay: CellTiterGlo cell viability assay, KG-1; type: cell-based; settings: KG-1, 72 h; for pEC50: read-out: Ab EC50; for inhibition at 198 µM: read-out: Top Inhibit
Experimental: as §1, §2, §3, §4

[1] = Homo sapiens, HT-29, 72 h, Table 4 classes
[2] = Homo sapiens, HT-29, 72 h, percentage inhibition at the highest concentration tested
[3] = Homo sapiens, percentage inhibition at the highest concentration tested
[4] = Homo sapiens, OVCAR 3, 72 h, Table 4 classes
[5] = Homo sapiens, K562, 72 h, percentage inhibition at the highest concentration tested
[6] = Homo sapiens, K562, K 562, 72 h, Table 4 classes
[7] = percentage inhibition at the highest concentration tested

| SMILES | pEC50 (HT29; [1]) | inhibition at 198 µM (HT29; [2]) | inhibition at 198 µM (HepG2; [3]) | inhibition at 198 µM (OVCAR 3; [3]) | pEC50 (OVCAR 3; [4]) | inhibition at 198 µM (MCF-7) | pEC50 (CCRF-CEM; Homo sapiens, Table 4 classes) | inhibition at 198 µM (CCRF-CEM; [3]) | inhibition at 198 µM (MOLT-4; [3]) | pEC50 (MOLT-4; Homo sapiens, Table 4 classes) | inhibition at 198 µM (K562; [5]) | pEC50 (K562; [6]) | pEC50 (HL-60; Homo sapiens, Table 4 classes) | inhibition at 198 µM (HL-60; [3]) | inhibition at 198 µM (RL; [7]) | pEC50 (RPMI-8226; Homo sapiens, Table 4 classes) | inhibition at 198 µM (RPMI-8226; [3]) | pEC50 (KG-1; Homo sapiens, Table 4 classes) | inhibition at 198 µM (KG-1; [3]) | pEC50 (HepG2; Homo sapiens, Table 4 classes) | other results |
| --- | --- | --- | --- | --- | --- | --- | --- | --- | --- | --- | --- | --- | --- | --- | --- | --- | --- | --- | --- | --- | --- |
| C[C@H](NP(=O)(Oc1cccc2ccccc12)OP(=O)(O)OC[C@H]1O[C@@H](n2cnc3c(N)nc(Cl)nc32)[C@H](F)C1O)C(=O)OCC(C)(C)C (stereo partly drawn) [Example 13, 2-Chloro-9-(2′-Deoxy-2′-fluoro-β-D-arabinofuranosyl)adenine-5′-O-[1-naphthyl(neopentoxy-L-alaninyl)] Diphosphate Triethylammonium Salt] | 6.00 to 6.70 | 68% | 49% | 80% | < 5.00 | 49% | > 6.70 | 99% | 89% | > 6.70 | 44% | < 5.00 | > 6.70 | 96% | 48% | < 5.00 | 88% | > 6.70 | 93% |  |  |
| C[C@H](NP(=O)(Oc1ccccc1)OP(=O)(O)OC[C@H]1O[C@@H](n2cnc3c(N)nc(Cl)nc32)[C@H](F)C1O)C(=O)OCC(C)(C)C (stereo partly drawn) [Example 9, 2-Chloro-9-(2′-Deoxy-2′-fluoro-β-D-arabinofuranosyl)adenine-5′-O-[phenyl(neopentoxy-L-alaninyl)] Diphosphate Triethylammonium Salt] | 6.00 to 6.70 | 70% | 53% | 43% | < 5.00 | 45% | > 6.70 | 99% | 92% | > 6.70 | 40% | < 5.00 | > 6.70 | 96% | 53% | < 5.00 | 81% | > 6.70 | 92% | 6.00 to 6.70 | pEC50 (RL): 6.00 to 6.70 |
| CCOC(=O)[C@@H](NP(=O)(Oc1ccccc1)OP(=O)(O)OC[C@H]1O[C@@H](n2cnc3c(N)nc(Cl)nc32)C(F)[C@H]1O)C(C)CC (stereo partly drawn) [Example 25, 2-Chloro-9-(2′-Deoxy-2′-fluoro-β-D-arabinofuranosyl)adenine-5′-O-[l-phenyl(ethoxy-L-isoleucinyl)] Diphosphate Triethylammonium Salt] | 6.00 to 6.70 | 67% | 49% | 24% | < 5.00 | 43% | > 6.70 | 99% | 86% | > 6.70 | 33% | < 5.00 | > 6.70 | 95% | 44% | 5.30 to 6.00 | 83% | > 6.70 | 91% |  |  |
| CC(C)[C@H](NP(=O)(Oc1ccccc1)OP(=O)(O)OC[C@H]1O[C@@H](n2cnc3c(N)nc(Cl)nc32)[C@@H](F)[C@@H]1O)C(=O)OC1CCCCC1.CCN(CC)CC (stereo partly drawn) [Example 12, 2-Chloro-9-(2′-Deoxy-2′-fluoro-β-D-arabinofuranosyl)adenine-5′-O-[phenyl(cyclohexoxy-L-valinyl)] Diphosphate Triethylammonium Salt] |  |  |  |  |  |  |  |  |  |  |  |  |  |  |  |  |  |  |  |  | pEC50 (HT29; absolute EC50, numeric values): 6.43; Top Inhibit (HT29; [7]): 71%; pEC50 (HepG2; absolute EC50, numeric values): 6.54; Top Inhibit (HepG2; [7]): 54%; pEC50 (OVCAR 3; OVCAR 3, 72 h, absolute EC50, numeric values): < 3.70; Top Inhibit (OVCAR 3; OVCAR 3, 72 h, percentage inhibition at the highest concentration tested): 41%; Top Inhibit (MCF-7): 44%; pEC50 (CCRF-CEM; absolute EC50, numeric values): > 7.70; Top Inh (CCRF-CEM; [7]): 99%; pEC50 (MOLT-4; absolute EC50, numeric values): 7.40; Top Inh (MOLT-4; [7]): 91%; pEC50 (K562; K562, 72 h, absolute EC50, numeric values): < 3.70; Top Inh (K562; K562, 72 h, percentage inhibition at the highest concentration tested): 40%; pEC50 (HL-60; absolute EC50, numeric values): 7.15; Top Inh (HL-60; [7]): 96%; Top Inh (RL; [7]): 47%; pEC50 (RPMI-8226; absolute EC50, numeric values): 4.40; Top Inh (RPMI-8226; [7]): 79%; pEC50 (KG-1; absolute EC50, numeric values): 6.85; Top Inhibit (KG-1; [7]): 91% |
| C[C@H](NP(=O)(Oc1cccc2c1CCCC2)OP(=O)(O)OC[C@H]1O[C@@H](n2cnc3c(N)nc(Cl)nc32)[C@H](F)C1O)C(=O)OCc1ccccc1 (stereo partly drawn) [Example 19, 2-Chloro-9-(2′-Deoxy-2′-fluoro-β-D-arabinofuranosyl)adenine-5′-O-[1-5,6,7,8-tetrahydro-1-naphthyl(benzoxy-L-alaninyl)] Diphosphate Triethylammonium Salt] | 6.00 to 6.70 | 68% | 51% | 51% | < 5.00 | 47% | > 6.70 | 99% | 90% | > 6.70 | 37% | < 5.00 | > 6.70 | 95% | 57% | < 5.00 | 79% | > 6.70 | 92% | 6.00 to 6.70 | pEC50 (RL): 6.00 to 6.70 |
